The source of these data is PubChem BioAssay AID504672 (Sanford-Burnham Center for Chemical Genomics, 2011).

What is called IC50 is the point on the concentration scale where inhibition reaches its midpoint.

The source made the active and inactive calls. No stated cut-off is given here; in the data, active means IC50 below about 71 µM; inactive means the rest.

The assay relates to S. cerevisiae tim10 strain, luminescence counterscreen. Nature of the assay: signal inhibition in TIM10 yeast counter-screen, dose response, counter-screen for tim23-1 inhibitor project, luminescence, S. cerevisiae, uHTS hits (AID 504672).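 Further: yeast grew roughly 22 hours at 25 °C before the luminescence read.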
As to `Cc1ccc(C(=O)Nc2nc(C(C)(C)C)cs2)s1`, the IC50 is 20.9 µM.

As to `O=CN(/C=C1\Sc2ccccc2C1=O)Cc1ccccc1`, the IC50 was 15.5 µM.

Consider `COc1ccc(-c2cc(-c3ccccc3O)[nH]n2)cc1`, for which the IC50 is 12.4 µM.

Turning to `Cc1nc2ccccc2n1/N=C/c1ccc([N+](=O)[O-])s1`, the IC50 was 2.14 µM.

Take `Cc1ccc(NC(=S)NC(=O)C2CC2)cc1Cl`: the IC50 was 8.83 µM.

For the compound `COc1ccc(C2=NNC(c3cccs3)=Nc3ccc(OC)cc32)cc1`, the IC50 was 9.29 µM.

With `Cc1ccc(S(=O)(=O)N[C@@H](Cc2ccccc2)C(=O)CCl)cc1`, the IC50 is 0.64 µM.

On to `N#C/C(=C/c1ccc(N2CCOCC2)o1)c1nc2ccccc2[nH]1`, for which the IC50 was 26.6 µM.

Consider `O=C1/C(=C/c2ccncc2)SC(=S)N1C1CCCCC1`, for which the 50% inhibitory concentration (IC50) was 27.4 µM.

For `CC(C)OC(=O)c1cccnc1SCc1cc(=O)n2ccccc2n1`, the half-inhibitory concentration (IC50) is 42.4 µM.

In the case of `Oc1ccc2ccccc2c1/C=N/c1nccs1`, the IC50 was 8.43 µM.

With `O=Cc1cnc2ccccc2c1-c1ccccc1`, the IC50 is 9.53 µM.

As to `COC(=O)N/N=C/c1ccc(-c2cc(Cl)cc(Cl)c2)o1`, the IC50 was 18 µM.

With `O=C(Nc1ncc([N+](=O)[O-])s1)c1ccc2c(c1)OCO2`, the IC50 is 15.8 µM.

For the compound `CC1(C)c2cc(Cl)ccc2-n2c1cc(O)c(-c1ccccc1)c2=O`, the IC50 was 11.5 µM.

Consider `Cc1csc2nc(O)c(C(=O)NCCCc3ccccc3)c(=O)n12`, for which the half-maximal inhibitory concentration (IC50) was 8.44 µM.

As to `COC(=O)c1ccc2nc(NC(=O)C3CC3)sc2c1`, the IC50 was 15.3 µM.

For `O=[N+]([O-])c1ccc(N/N=C/c2cccc(O)c2)cc1`, the IC50 was 6.08 µM.

For the compound `Cc1ccc(SCC(=O)OCn2nnc3ccccc3c2=O)cc1C`, the IC50 is 15.6 µM.

Turning to `O=C(Oc1cccc2c(O)cccc12)c1ccccc1`, the IC50 was 4.84 µM.

With `Cc1ccc2occ(/C=N/NC(=O)c3ccccc3Br)c(=O)c2c1`, the IC50 is 17.3 µM.

Take `O=C(NC(=S)NC(=O)c1ccccc1F)c1ccccc1F`: the IC50 was 8.39 µM.

As for `c1ccc(N=Nc2cn[nH]c2-c2ccco2)cc1`, the IC50 is 20.8 µM.

Consider `COCCNC(=O)/C(C#N)=C/c1ccc(OCc2ccc(F)cc2)cc1`, for which the concentration for half-maximal inhibition (IC50) is 11.3 µM.

With `CO/C(N)=C(\C#N)N=Cc1ccccc1Cl`, the IC50 was 77.2 µM.

As to `Cn1c(C=O)c(C#Cc2ccccc2)c2ccccc21`, the IC50 was 5.53 µM.

With `O=c1cc(C(Cl)(Cl)Cl)oc2c1ccc1ccccc12`, the IC50 was 63.8 µM.

For the compound `CC1(C)OC(=O)C(=Cc2ccc[nH]2)C(=O)O1`, the IC50 is 7.41 µM.

For the compound `c1cnc2c(c1)ccc1cccnc12`, the IC50 is 12.3 µM.

On to `O=c1c2ccccc2[nH]c(=S)n1CCN1CCC(=C(c2ccc(F)cc2)c2ccc(F)cc2)CC1`, for which the IC50 was 12.7 µM.

Regarding `N#C/C(=C\c1ccc(O)cc1)c1nc2ccccc2o1`, the IC50 was 17.6 µM.

Turning to `O=C(NCCCc1ccccc1)Nc1cccc(Cl)c1`, the IC50 was 5.13 µM.

With `O=C(Nc1ccc(C(=O)N2CCCc3ccccc32)cc1)c1cccs1`, the IC50 is 15.2 µM.

Turning to `O=C1c2ccccc2-c2n[nH]c3cccc1c23`, the IC50 is 20.2 µM.

Consider `Cc1cc(C(=O)CCl)c(C)n1CCc1ccc(Cl)cc1`, for which the IC50 is 11 µM.

Take `Cc1ccc(-c2nc3ccccc3[nH]2)s1`: the half-inhibitory concentration (IC50) was 16.4 µM.

`COc1ccc(CCN(/C=C2\Sc3ccccc3C2=O)C(C)=O)cc1OC`: the IC50 was 26.3 µM.

On to `N#C/C(N)=C(/C#N)N=Cc1cccc(Cl)c1`, for which the IC50 is 14.2 µM.

Consider `CC(C)CCN1C(=O)c2cccc3c(N)ccc(c23)C1=O`, for which the IC50 is 10.6 µM.

For the compound `O=C(CC(=O)c1cc(Cl)ccc1O)c1ccccc1`, the IC50 is 11.1 µM.

Regarding `Cc1ccc(CS(=O)(=O)c2ncc(Cl)c(C(=O)Nc3ccc(OC(F)F)cc3)n2)cc1`, the IC50 is 5.88 µM.

Turning to `O=C(CSc1cccc[n+]1[O-])Nc1ccccc1Oc1ccccc1`, the IC50 was 17.7 µM.

For the compound `COc1ccc(/C=C/C(=O)Nc2ccc3c(c2)CCC3)cc1OC`, the IC50 was 64.1 µM.

For the compound `Oc1ccc(Oc2ccc(Oc3ccc(O)cc3)cc2)cc1`, the IC50 is 30.4 µM.

Regarding `O=C(Nc1cccc(Br)c1)C1CCCC1`, the IC50 is 14.1 µM.

Regarding `Cc1ccc2[nH]cc(C(=O)CCl)c2c1`, the half-maximal inhibitory concentration (IC50) was 26.1 µM.

For `Cc1ccc2nc(NC(=O)COC(=O)c3cccnc3)sc2c1`, the concentration for half-maximal inhibition (IC50) was 6.25 µM.

`OCCOCCNc1ncnc2c1c(-c1ccccc1)cn2-c1ccccc1`: the IC50 was 11.7 µM.

For `O=C(N/N=C/C(Cl)=C\c1ccccc1)c1cccs1`, the IC50 is 59.1 µM.

Consider `O=c1/c(=C/c2cccc3ccccc23)sc2ncnn12`, for which the IC50 is 16.7 µM.

As to `COc1ccc(NCc2ccc([N+](=O)[O-])s2)cc1`, the IC50 was 6.42 µM.

Take `O=C(Nc1nccs1)c1ccc(Cl)s1`: the concentration for half-maximal inhibition (IC50) is 13.3 µM.

In the case of `c1ccc(-c2ncc(-c3ccn[nH]3)s2)cc1`, the IC50 is 3.88 µM.

As for `CCCC(=O)NC(c1ccc(C(C)C)cc1)c1ccc2cccnc2c1O` (centres undefined), the IC50 was 7.76 µM.

As for `Oc1ccc(/C=N/Nc2cccc(Cl)n2)c(O)c1`, the half-inhibitory concentration (IC50) was 14.9 µM.

For the compound `Cc1ccc(-c2nnc(N3CCN(c4ccccn4)CC3)c3ccccc23)cc1`, the IC50 is 13.1 µM.

Consider `O=C(Nc1nc2ccccc2s1)C1CCCN1S(=O)(=O)c1ccc(Cl)cc1` (centres undefined), for which the IC50 was 49.3 µM.

With `O=C(Oc1ccc(=O)n(-c2ccccc2)n1)c1ccc(Cl)cc1`, the IC50 is 34.7 µM.

With `Cc1cccc(N2C(=O)c3ccc(Br)cc3C2=O)n1`, the IC50 was 7.58 µM.

With `O=C(Nc1ccc(-c2cn3c(n2)SCC3)cc1)c1ccco1`, the IC50 was 38.3 µM.

Turning to `O=C(Nc1ccc(-c2ccc(N3CCCCC3)nn2)cc1)c1ccco1`, the IC50 is 5.82 µM.

On to `CN=c1scc(-c2cccs2)n1/N=C/c1ccc(O)c(O)c1O`, for which the IC50 was 11 µM.

In the case of `O=c1oc(-c2ccc(Br)o2)nc2ccccc12`, the IC50 was 8.59 µM.

Consider `Cc1nc2ccccc2c(=O)n1/N=C/c1cc(Br)ccc1O`, for which the IC50 was 10.8 µM.

For the compound `CC1CCc2c(sc3nc(C(C)(C)C)nc(N4CCN(C(=O)CCl)CC4)c23)C1` (centres undefined), the IC50 was 23.3 µM.

For the compound `Cn1c(=O)c(C(=O)Nc2ncccn2)c(O)c2ccccc21`, the IC50 was 4.78 µM.

As for `CC(C)n1cc(NC(=O)c2cc(-c3ccccc3)on2)cn1`, the IC50 is 14.3 µM.

With `Oc1ccc(Br)cc1/C=N/Nc1ccccn1`, the IC50 is 5.94 µM.

Take `CCC(C)c1ccc(NC(=O)C2CC3CCC2C3)cc1` (centres undefined): the IC50 is 19.4 µM.

For the compound `COc1cc(/C=N/NC(=O)c2ccc(N)cc2)ccc1OC(=O)c1cccc(C)c1`, the IC50 is 7.44 µM.

Turning to `CC(C)(C)c1csc(NC(=O)c2ccc(Cl)s2)n1`, the IC50 is 24.6 µM.

Turning to `O=C(N/N=C/c1ccc(Br)s1)c1cccs1`, the IC50 was 22.9 µM.

For `Cc1nc(-c2ccc(NC(=O)c3ccccc3)cc2)cs1`, the IC50 is 8.18 µM.

As for `Cc1nc2scc(C)n2c(=O)c1S(=O)(=O)Nc1ccc(N2CCOCC2)cc1`, the IC50 is > 100 µM (inactive).

Take `O=C(Nc1ccc2oc(-c3ccccc3)nc2c1)c1cccnc1`: the IC50 was 10.8 µM.

Regarding `COc1cccc(CNn2c(-c3cccc(C)c3)nc3ccccc3c2=O)c1O`, the IC50 is 13 µM.

Regarding `Cc1ccc(S(=O)(=O)n2ccc(OC(=O)c3cccs3)n2)cc1`, the IC50 is 8.32 µM.

Consider `O=c1oc(Cl)c(Cl)c2ccccc12`, for which the IC50 was 20.1 µM.

As for `Cc1ccn2cc(C(=O)Nc3ccc4c(c3)OCCO4)nc2c1`, the IC50 was > 100 µM (inactive).
